Entries after “also recorded” stand apart in the source; their conditions may differ. Read-outs that look alike come from different tables or passages of the source.

The target of experiment [1] is T1, P2Y receptor (turkey erythrocyte membranes) (Meleagris gallopavo, UniProt P49652).
T1 construct: from tissue; host or cells: washed turkey erythrocytes, ghosts prepared by hypotonic lysis
In words: Stimulation of phospholipase C (inositol phosphate formation) in turkey erythrocyte membranes. Format: biochemical. The settings on record: for EC50 / activity/potency in words, turkey erythrocyte: turkey erythrocyte membranes; for EC50: mean ± S.E.M. for at least 2 determinations, read-out: phosphatidyl inositol metabolism (K0.5, nM) erythrocyte. Put shortly:
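Erythrocytes were labelled 18-24 h at 37 °C with [3H]myoinositol, and ghosts were made by hypotonic lysis. Ghosts (≈175 μg protein) were incubated 5 min at 30 °C in Hepes buffer pH 7.0 with 1 μM GTPγS and nucleotide analogs. Total [3H]inositol phosphates were purified by anion exchange; K0.5 averaged from 3-8 dose-response curves.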

Experiment [2] deals with P2Y receptor (aorta endothelium). In words: Relaxation of noradrenalin-contracted rabbit aorta. The settings on record: for activity/potency/selectivity in words, aorta: rabbit aorta endothelial P2Y receptor; for relaxation pD2, aorta: rabbit aorta, log molar units.
Experiment [3] has as its system P2X and P2Y receptors. In words: Overall activity in the seven P2X and P2Y preparations.
Experiment [4] deals with P2X receptors. In words: Overall activity in P2X receptor systems.
Experiment [5] deals with T2, P2X receptor (saphenous artery) (Oryctolagus cuniculus, UniProt G1U3D6).
T2 construct: and rabbit saphenous artery; from tissue; host or cells: rabbit saphenous artery
T2 sequence (G1U3D6 1-399): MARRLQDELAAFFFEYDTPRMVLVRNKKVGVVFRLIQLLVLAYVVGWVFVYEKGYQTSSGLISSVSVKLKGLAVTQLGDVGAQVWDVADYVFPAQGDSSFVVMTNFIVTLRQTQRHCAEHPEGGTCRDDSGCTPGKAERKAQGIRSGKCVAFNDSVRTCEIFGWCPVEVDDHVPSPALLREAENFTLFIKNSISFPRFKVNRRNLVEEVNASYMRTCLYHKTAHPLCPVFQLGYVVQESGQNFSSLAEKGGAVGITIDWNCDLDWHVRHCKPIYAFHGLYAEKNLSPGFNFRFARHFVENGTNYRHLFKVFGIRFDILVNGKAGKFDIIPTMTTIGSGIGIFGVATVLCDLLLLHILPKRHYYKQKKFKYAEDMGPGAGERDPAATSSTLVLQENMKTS
Put plainly: Contraction of rabbit saphenous artery. The settings on record: rabbit saphenous artery. From the text:
(§1) Muscular relaxation/contraction: Relaxant responses mediated via P2Y receptors were examined in guinea pig taenia coli, rabbit aorta, and rabbit mesenteric artery, as described by Hoyle et al. (Br. J. Pharmacol., 107, 367-374 (1992a)), Burnstock et al., (Br. J. Pharmacol., 90, 383-391 (1987a)), and Rubino et al., (Eur. J. Pharmacol., 212, 237-240 (1992)). Contractile responses mediated via P2X receptors were examined in the guinea pig urinary bladder and vas deferens, and rabbit saphenous artery, also using standard methods (see Hoyle et al., supra., 1992; Hoyle et al., Br. J. Pharmacol., 99, 617-621 (1990); and Burnstock et al., Br. J. Pharmacol., 90, 111-120 (1987b)).
^c For the saphenous artery, the percentages in brackets are response
at 10 μM relative to the contraction produced by 1 μM α,MeATP
ATP in this assay is very weak (EC50 =
1.78 mM). The highest concentrations of the analogues tested were 3-30

The target in experiment [6] is T3, P2X receptor (vas deferens) (Cavia porcellus, UniProt A0A286XVA9).
T3 sequence (A0A286XVA9 1-399): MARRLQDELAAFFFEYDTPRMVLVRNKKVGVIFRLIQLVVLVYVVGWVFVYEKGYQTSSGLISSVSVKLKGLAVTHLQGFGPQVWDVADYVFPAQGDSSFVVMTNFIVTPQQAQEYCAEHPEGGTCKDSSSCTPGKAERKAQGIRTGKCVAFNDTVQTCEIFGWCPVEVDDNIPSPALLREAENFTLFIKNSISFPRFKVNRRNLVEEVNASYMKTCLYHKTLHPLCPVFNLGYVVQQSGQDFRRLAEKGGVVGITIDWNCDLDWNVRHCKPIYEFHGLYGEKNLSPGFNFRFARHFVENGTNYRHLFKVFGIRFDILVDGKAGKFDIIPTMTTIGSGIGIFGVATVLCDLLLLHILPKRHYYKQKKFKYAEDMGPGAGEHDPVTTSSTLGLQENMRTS
Put plainly: Contraction of guinea pig isolated vas deferens.

Experiment [7] has as its target T4, P2X receptor (urinary bladder) (Cavia porcellus, UniProt A0A286XVA9).
T4 construct: guinea pig isolated urinary bladder detrussor muscle; from tissue; host or cells: guinea pig isolated urinary bladder detrusor muscle
Put plainly: Contraction of guinea pig isolated urinary bladder detrussor muscle. The settings on record: guinea pig urinary bladder.
Protocol: In FIG. 14, the x-axis is also marked in units of the negative log of the molar concentration of applied putative P2Y receptor agonists and the y-axis is marked in units of the percentage relaxation of the 1 μM noradrenalin-induced contraction of rabbit aorta endothelium. In FIGS. 15-16, the x-axis is marked in units of the negative log of the molar concentration of applied putative p^2X receptor agonists and the y-axis is marked in units of the percentage contraction relative to a standard dose of KCl (i.e., 60 mM), as assessed in guinea pig isolated urinary bladder detrussor muscle (FIG. 15) and guinea pig isolated vas deferens (FIG. 16).

Experiment [8] has as its target T5, P2Y receptor (taenia coli) (Cavia porcellus, UniProt P59902).
T5 construct: Relaxant responses mediated via P2Y receptors were examined in guinea pig taenia coli; from tissue; host or cells: guinea pig taenia coli (carbachol-contracted)
Put plainly: Relaxation of carbachol-contracted guinea pig taenia coli. Put shortly: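 Guinea pig taenia coli precontracted with 50 nM carbachol; relaxation to applied P2Y agonists expressed as percentage relaxation against negative log molar agonist concentration.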

The subject of experiment [9] is P2Y receptors. In words: Overall activity in P2Y receptor systems. The protocol:
Phospholipase C activity: Stimulation of inositol phosphate formation by compounds of the present invention was measured in turkey erythrocyte membranes as described by Harden et al., supra and Boyer et al., supra. The K0.5 values were averaged from 3-8 independently determined dose-response curves for each compound. Briefly, one ml of washed turkey erythrocytes was incubated in inositol-free medium (DMEM; Gibco) with 0.5-1 mCi of 2-[^3 H]myoinositol (20 Ci/mmol; American Radiolabeled Chemicals Inc., St. Louis, Mo.)for 18-24 h in a humidified atmosphere of 95% air 5% CO2 at 37° C. Erythrocyte ghosts were prepared by rapid lysis in hypotonic buffer (5 mM sodium phosphate, pH 7.4, 5 mM MgCl2, 1 mM EGTA) as described by Boyer et al., supra. Phospholipase C activity was measured in 25 μl of [^3 H]inositol-labeled ghosts (≈175 μg of protein, 200-500,000 cpm/assay) in a medium containing 424 μM CaC12, 0.91 mM MgSO4, 2 mM EGTA, 115 mM KCl, 5 mM KH2 PO4, and 10 mM Hepes, pH 7.0. Assay (100 μl or 200 μl final volume) contained 1 μM GTPγS and the indicated concentrations of nucleotide analogs. Ghosts were incubated at 30° C. for 5 min, and total [^3 H]inositol phosphates were quantitated after purification by anion exchange chromatography according to Harden et al. (supra) and Boyer et al. (supra).
as §1

Experiment [10] deals with P2Y receptor (mesenteric artery). Put plainly: Relaxation of rabbit mesenteric artery.
[11] abbreviates: listed as 8-(6-Aminohexylamino)ATP.
The mark [12] stands for this setting: listed as 8-(6-amino-hexylamino)ATP.

T1 sequence (P49652 whole entry): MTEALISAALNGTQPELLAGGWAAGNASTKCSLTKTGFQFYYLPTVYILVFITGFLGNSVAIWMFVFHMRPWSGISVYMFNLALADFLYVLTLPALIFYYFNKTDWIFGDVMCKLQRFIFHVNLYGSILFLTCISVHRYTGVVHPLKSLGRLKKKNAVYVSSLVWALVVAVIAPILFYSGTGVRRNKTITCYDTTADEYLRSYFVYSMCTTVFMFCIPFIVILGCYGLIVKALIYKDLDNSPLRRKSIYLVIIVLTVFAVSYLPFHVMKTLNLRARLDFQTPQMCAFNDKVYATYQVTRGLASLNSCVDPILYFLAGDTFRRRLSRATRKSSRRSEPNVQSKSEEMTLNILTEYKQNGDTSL
T5 sequence (P59902 whole entry): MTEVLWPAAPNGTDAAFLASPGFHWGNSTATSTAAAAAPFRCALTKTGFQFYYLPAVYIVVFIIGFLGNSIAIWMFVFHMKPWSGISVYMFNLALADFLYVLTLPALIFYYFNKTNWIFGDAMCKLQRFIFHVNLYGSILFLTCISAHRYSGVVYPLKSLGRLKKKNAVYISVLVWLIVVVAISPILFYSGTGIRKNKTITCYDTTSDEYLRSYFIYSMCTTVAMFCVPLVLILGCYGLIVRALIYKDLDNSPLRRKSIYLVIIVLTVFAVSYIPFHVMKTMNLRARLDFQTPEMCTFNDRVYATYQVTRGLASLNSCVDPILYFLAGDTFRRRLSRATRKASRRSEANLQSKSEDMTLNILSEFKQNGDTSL

As for `CC1(C)O[C@@H]2[C@H](O1)[C@@H](COP(=O)(O)O)O[C@H]2n1cnc2c(N)ncnc21` [2',3'-Isopropylidene-AMP, 2',3'-Isopropylidene AMP], in [1], the EC50 is greater than 100000 nM. For the same molecule, the “activity/potency/selectivity in words, aorta” value (“activity/potency/selectivity” below) in experiment [2] (listed as 2',3'-isopropylidene-AMP) is given as “a potent agonist at the rabbit endothelial P2Y receptor”; in experiment [2] (listed as Isopropylidene-AMP), “specific for the aortic endothelial P2Y receptor”. The “overall activity in words, all preparations” value in experiment [3] is “Neither was particularly active at either P2X or P2Y receptors”. Also, the “overall activity in words, P2X systems” value in [4] was “inactive in the P2X receptor systems”.

As for `CC1(C)O[C@@H]2[C@H](O1)[C@@H](COP(=O)(O)OP(=O)(O)OP(=O)(O)O)O[C@H]2n1cnc2c(N)ncnc21` [2',3'-Isopropylidene-ATP, 2',3'-Isopropylidene adenosine 5'-triphosphate], in experiment [1], the EC50 is 201000 nM. For the same molecule, in experiment [2], the “activity/potency/selectivity” value is listed as “high selectivity”. The activation at 10 µM in [5] (10 μM, read-out: response at 10 μM relative to the contraction produced by 1 μM α,MeATP, saph. artery) was 7.7%. Moreover, the “activity/potency in words, vas deferens” value in [6] was “inactive in the vas deferens”. Moreover, the “activity/potency in words, bladder” value in [7] was “limited activity in the urinary bladder”. The “overall activity in words, all preparations” value in experiment [3] is listed as “Neither was particularly active at either P2X or P2Y receptors”.

Turning to `Nc1ncnc2c1ncn2[C@H]1C[C@H](O)[C@@H](COP(=O)(O)OP(=O)(O)OP(=O)(O)O)O1` [2'-Deoxy-ATP, 2'-deoxy-ATP, reference compound], the “fold less potent than ATP, turkey erythrocyte” value in experiment [1] (relative to ATP) is on record as 7 -fold. In experiment [1], the “activity/potency in words, turkey erythrocyte” value is “seven times less potent than ATP in the turkey erythrocyte”. For the same molecule, the EC50 in experiment [1] is 19200 nM; in experiment [8] (guinea pig taenia coli, log molar units, read-out: relaxation pD2, taenia coli (converted)), 2.51 µM. In addition, the “activity/potency in words, taenia coli” value in experiment [8] (guinea pig taenia coli) was “roughly equipotent with ATP in the taenia coli”; in experiment [8] (guinea pig taenia coli, listed as 2'-deoxy-ATP), “selectivity”. The “overall activity in words, all preparations” value in experiment [3] was “inactive in the five other preparations”. Further, the “overall activity in words, P2X systems” value in [4] was “inactive in the P2X receptor systems”.

Consider `Nc1ncnc2c1ncn2[C@@H]1O[C@H](COP(=O)(O)OP(=O)(O)OP(=O)(O)O)[C@@H](N)[C@H]1O` [3'-Amino-3'deoxy-ATP, 3'-Amino-3'-deoxyadenosine 5'-triphosphate, reference compound], for which, in experiment [1] (relative to ATP), the “times more potent than ATP, turkey erythrocyte” value was “approximately 15 times”. Moreover, the EC50 in experiment [1] is 193 nM; in experiment [8] it was 3.98 µM. For the same molecule, the “activity/potency in words, taenia coli” value in [8] (guinea pig taenia coli) is recorded as “almost as potent as ATP in the taenia coli”. The “relaxation pD2, aorta” value in experiment [2] came to 6.4. Moreover, in experiment [5], the “activity/potency in words, saphenous artery” value was “inactive in the saphenous artery”. Further, the “activity/potency in words, vas deferens” value in experiment [6] is given as “more or less as potent as ATP”. Also, the “activity/potency in words, bladder” value in experiment [7] was “more or less as potent as ATP”. Besides, in [3], the “overall activity in words, all preparations” value was “generally enhanced potency at P2 receptors”.

Take `Nc1ncnc2c1ncn2[C@@H]1O[C@H](COP(=O)(O)OP(=O)(O)OP(=O)(O)O)C[C@H]1O` [3'-Deoxy-ATP, 3'-deoxy-ATP, reference compound]: in experiment [1], the EC50 was 75500 nM. For the same molecule, the “activity/potency in words, saphenous artery” value in experiment [5] was “no effect”. Also, the “activity/potency in words, vas deferens” value in [6] is listed as “as active as ATP, or nearly so; also recorded: equivalent to the effect of ATP”. For the same molecule, in experiment [7], the “activity/potency in words, bladder” value is recorded as “as active as ATP, or nearly so; also recorded: less potent or equal to potency of ATP”. Moreover, the “overall activity in words, all preparations” value in experiment [3] is “greatly reduce or abolish activity within most P2X and P2Y preparations”. In addition, in experiment [9], the “overall activity in words, P2Y systems” value is “less potent than 2'-deoxy-ATP at P2Y receptors”.

With `NCCCCCCNc1nc2c(N)ncnc2n1[C@@H]1O[C@H](COP(=O)(O)OP(=O)(O)OP(=O)(O)O)[C@@H](O)[C@H]1O` [8-(6-Aminohexylamino)-ATP, 8-(6-aminohexylamino)-ATP, reference compound], the “activity/potency in words, turkey erythrocyte” value in experiment [1] (setting [11]) was “somewhat active in turkey erythrocytes”; in [1] (setting [12]) it was “less potent than ATP at the turkey erythrocyte P2Y receptor”. For the same molecule, the EC50 in [1] amounted to 8200 ± 1200 nM. The “activity/potency/selectivity” value was “selective for the endothelial receptors of the rabbit aorta versus the mesenteric artery and taenia coli” in [2] (setting [11]); “much more potent than ATP” in [2] (setting [12]); “high selectivity” in experiment [2] (listed as 8-(6-aminohexylamino)ATP). In addition, the “relaxation pD2, aorta” value in experiment [2] is recorded as 7.3. Further, the “activity/potency in words, mesenteric artery” value in experiment [10] is listed as “no activity at the mesenteric artery P2Y receptor”. The “overall activity in words, P2X systems” value in [4] is “inactive in the P2X receptor systems”. Moreover, in experiment [9], the “overall activity in words, P2Y systems” value is listed as “specific for P2Y receptors”.

(Values after patent US5620676A, “Biologically active ATP analogs” (priority 1995, dated 1997).)
